From patent publication US6281342A, “Pradimicin compounds” (Bristol-Myers Squibb Company, priority 1994, dated 2001)
Values after ≈ are worked out from the molar mass of the structure shown. Like-named read-outs stand apart in the source and are kept apart here.

Columns and labels:
[1] = system: Candida albicans 83-2-14; assay: MIC, two-fold agar dilution, C. albicans 83-2-14; type: cell-based; details: 83214, YMA pH 7.0, 28° C., 40 hours
Method: (§1) Minimum inhibitory concentrations (MICs) of nine 4'-N-substituted pradimicin derivatives were determined by two-fold agar dilution method on phosphate-buffered yeast morphology agar (YMA, pH 7.0, Difco Laboratories). A 5-μl of fungal cell suspension containing 2×10^6 cells/ml (2×10^7 cells/ml for Trichophyton mentagrophytes) were spotted on the surface of the agar plates containing test compound. MICs were recorded after 40-hour incubation at 28° C. except for T. mentagrophytes, which required 60-hour incubation to produce visually evaluable growth on the drug-free control plates and were defined as the lowest antibiotic concentrations showing no growth or less than five discrete colonies per spot.
(§2) Medium: yeast morphology agar + 1/15 M phosphate buffer (pH 7.0)
(§3) Incubation conditions: 28° C., 40 hours (C. albicans ATCC 38247 & T.
(§4) Medium: Yeast morphology agar + 1/15 phosphate buffer (pH 7.0).

[2] = system: Candida tropicalis 85-8; assay: MIC, two-fold agar dilution, C. tropicalis 85-8; type: cell-based; details: 858, YMA pH 7.0, 28° C., 40 hours
Method: as §1, §2, §3, §4

[3] = system: Candida albicans A9540; assay: MIC, two-fold agar dilution, C. albicans A9540; type: cell-based
Method: as §1, §2, §3, §4

[4] = system: Candida albicans ATCC 38247; assay: MIC, two-fold agar dilution, C. albicans ATCC 38247; type: cell-based; details: ATCC38247, YMA pH 7.0, 28° C., 60 hours (table footnote)
Method: as §1, §2, §3
(§5) mentagrophytes #4329: 28° C., 60 hours).
as §4

[5] = system: Candida albicans ATCC 32354; assay: MIC, two-fold agar dilution, C. albicans ATCC 32354; type: cell-based; details: ATCC32354, YMA pH 7.0, 28° C., 40 hours
Method: as §1, §2, §3, §4

[6] = system: Aspergillus fumigatus IAM 2034; assay: Therapeutic efficacy in Aspergillus fumigatus systemic infection in mice; type: in vivo, male ICR mice infected with Aspergillus fumigatus IAM 2034; details: IAM2034, 480 h; for responders at 6.3 mg/kg: 6.3 mg/kg iv; for responders at 6.3 mg/kg / responders at 12.5 mg/kg / responders at 25 mg/kg / responders at 50 mg/kg: 20th day post-infection, read-out: S/T (No. of survivors/tested) (converted); for responders at 12.5 mg/kg: 12.5 mg/kg iv; for responders at 25 mg/kg: 25 mg/kg iv; for responders at 50 mg/kg: 50 mg/kg iv
Method: (§6) The in vivo therapeutic efficacies of seven 4'-N-substituted pradimicin derivatives, KHM-1, KHM-2, KHM-3, KHM-4, KHM-5, KHM-6 and KHM-7 were evaluated in the mouse infected with Candida albicans A9540 and Aspergillus fumigatusIAM 2034. Groups of five specific-pathogen-free male ICR mice weighing 20-25 g at each dose level were intravenously infected with approximately 10 times the 50% lethal dose of C. albicans A9540 (1×10^6 cells/mouse) or A. fumigatus IAM 2034 (1×10^7 cells/mouse). Immediately after the fungal infection, test compounds dissolved with 10% DMSO in distilled water were intravenously given to the mouse at the dosed volume of 0.1 ml/10 g of body weight. […] Untreated control animals died 7 to 13 days post-infection.

[7] = system: Candida albicans A9540; assay: animal or person; type: in vivo, male ICR mice infected with Candida albicans A9540
Method: as §6

[8] = system: Candida albicans IAM 4888; assay: MIC, two-fold agar dilution, C. albicans IAM 4888; type: cell-based; details: IAM4888, YMA pH 7.0, 28° C., 40 hours
Method: as §1, §2, §3, §4

[9] = system: Aspergillus fumigatus IAM 2034; assay: MIC, two-fold agar dilution, A. fumigatus IAM 2034; type: cell-based; details: IAM2034
Method: as §1, §2, §3, §4

[10] = system: Candida tropicalis IFO 10241; assay: MIC, two-fold agar dilution, C. tropicalis IFO 10241; type: cell-based; details: IFO10241, YMA pH 7.0, 28° C., 40 hours
Method: as §1, §2, §3, §4

[11] = system: Saccharomyces cerevisiae ATCC 9763; assay: MIC, two-fold agar dilution, S. cerevisiae ATCC 9763; type: cell-based; details: ATCC9763, YMA pH 7.0, 28° C., 40 hours
Method: as §1, §2, §3, §4

[12] = system: Cryptococcus neoformans D49; assay: MIC, two-fold agar dilution, C. neoformans D49; type: cell-based; details: YMA pH 7.0, 28° C., 40 hours
Method: as §1, §2, §3, §4

[13] = system: Trichophyton mentagrophytes #4329; assay: MIC, two-fold agar dilution, T. mentagrophytes #4329; type: cell-based
Method: as §1, §2, §3, §5, §4

[14] = Water solubility at neutral pH in PBS containing Ca^2+/Mg^2+; type: physicochemical; details: pbs with ca2+/mg2+; Table 3; water-solubility at neutral pH in phosphate buffered saline containing Ca^2+/Mg^2+
Method: The compounds of the invention have good water solubility. Typically, the water solubility is greater than 10 mg/ml when measured at neutral pH in PBS containing Ca^2+ /Mg^2+, preferably greater than 20 mg/ml.
^2) Water-solubility at neutral pH in phosphate buffered saline
containing Ca^2+ /Mg^2+.

[15] = system: Cryptococcus neoformans IAM 4514; assay: MIC, two-fold agar dilution, C. neoformans IAM 4514; type: cell-based; details: IAM4514
Method: as §1, §2, §3, §4

[16] = Candida albicans A9540, YMA pH 7.0, 28° C., 40 hours, read-out: MIC
[17] = Table 3, Candida albicans A9540, YMA, read-out: MIC Ca-4
[18] = Aspergillus fumigatus, A. fumigatus, mice
[19] = Aspergillus fumigatus, Table 2, A. fumigatus, mice, iv, 95% confidence limits in parentheses, read-out: PD50 (50% protection dose)
[20] = Candida albicans, A9540, 480 h, Table 2, C. albicans, mice, iv, 95% confidence limits in parentheses, read-out: PD50 (50% protection dose)
[21] = Candida albicans, A9540, in Mus musculus, iv, 480 h, read-out: S/T (No. of survivors/tested)
[22] = Aspergillus fumigatus IAM 2034, YMA pH 7.0, 28° C., 40 hours, read-out: MIC
[23] = Table 3, Aspergillus fumigatus IAM 2034, YMA, read-out: MIC Af-3
[24] = Table 3, Trichophyton mentagrophytes #4329, YMA, read-out: MIC TM-4
[25] = Trichophyton mentagrophytes #4329, YMA pH 7.0, 28° C., 60 hours, read-out: MIC
[26] = Cryptococcus neoformans IAM 4514, YMA pH 7.0, 28° C., 40 hours, read-out: MIC
[27] = Table 3, Cryptococcus neoformans IAM 4514, YMA, read-out: MIC Cn-2
[28] = Candida albicans, A9540, 480 h, C. albicans, mice, 6.3 mg/kg iv, 20th day post-infection, read-out: S/T (No. of survivors/tested) (converted)
[29] = Candida albicans, A9540, 480 h, C. albicans, mice, 12.5 mg/kg iv, 20th day post-infection, read-out: S/T (No. of survivors/tested) (converted)
[30] = Candida albicans, A9540, 480 h, C. albicans, mice, 25 mg/kg iv, 20th day post-infection, read-out: S/T (No. of survivors/tested) (converted)
[31] = Candida albicans, A9540, 480 h, C. albicans, mice, 50 mg/kg iv, 20th day post-infection, read-out: S/T (No. of survivors/tested) (converted)

COc1cc(O)c2c(c1)C(=O)c1c(cc3c(c1O)-c1c(cc(C)c(C(=O)N[C@H](C)C(=O)O)c1O)[C@H](O[C@@H]1O[C@H](C)[C@H](N(C)N=O)[C@H](O[C@@H]4OC[C@@H](O)[C@H](O)[C@H]4O)[C@H]1O)[C@H]3O)C2=O [KHM-6, 4'-N-Nitrosopradimicin A]
MIC [1]: 6.3 µg/mL (≈ 7.24 µM) | MIC [2]: 12.5 µg/mL (≈ 14.4 µM) | MIC [3, 16]: 6.3 µg/mL (≈ 7.24 µM) | MIC [3, 17]: 6.3 µg/mL (≈ 7.24 µM) | MIC [4]: 1.6 µg/mL (≈ 1.84 µM) | MIC [5]: 3.1 µg/mL (≈ 3.56 µM) | responders at 6.3 mg/kg [6, 18]: 0% | responders at 12.5 mg/kg [6, 18]: 40% | responders at 25 mg/kg [6, 18]: 0% | responders at 50 mg/kg [6, 18]: 40% | ED50 [6, 19]: > 50 mg/kg | ED50 ([6]; Table 3, Aspergillus fumigatus IAM 2034, iv, read-out: PD50 (mice) Af-3): > 50 mg/kg | ED50 [7, 20]: 27 mg/kg | responders at 6.3 mg/kg [7, 21]: 0% | responders at 12.5 mg/kg [7, 21]: 20% | responders at 25 mg/kg [7, 21]: 20% | responders at 50 mg/kg [7, 21]: 80% | MIC [8]: 6.3 µg/mL (≈ 7.24 µM) | MIC [9, 22]: 3.1 µg/mL (≈ 3.56 µM) | MIC [9, 23]: 3.1 µg/mL (≈ 3.56 µM) | MIC [10]: 12.5 µg/mL (≈ 14.4 µM) | MIC [11]: 3.1 µg/mL (≈ 3.56 µM) | MIC [12]: 1.6 µg/mL (≈ 1.84 µM) | MIC [13, 24]: 3.1 µg/mL (≈ 3.56 µM) | MIC [13, 25]: 3.1 µg/mL (≈ 3.56 µM) | solubility [14]: > 20000 µg/mL | MIC [15, 26]: 1.6 µg/mL (≈ 1.84 µM) | MIC [15, 27]: 1.6 µg/mL (≈ 1.84 µM)

CN[C@@H]1[C@H](O[C@@H]2OC[C@@H](O)[C@H](O)[C@H]2O)[C@@H](O)[C@H](O[C@H]2c3cc(C)c(C(=O)N[C@H](CO)C(=O)O)c(O)c3-c3c(cc4c(c3O)C(=O)c3cc(OC)cc(O)c3C4=O)[C@@H]2O)O[C@@H]1C [Pradimicin FA-1, reference compound]
MIC [1]: 6.3 µg/mL (≈ 7.35 µM) | MIC [2]: 6.3 µg/mL (≈ 7.35 µM) | MIC [3, 16]: 6.3 µg/mL (≈ 7.35 µM) | MIC [3, 17]: 6.3 µg/mL (≈ 7.35 µM) | MIC [4]: 1.6 µg/mL (≈ 1.87 µM) | MIC [5]: 3.1 µg/mL (≈ 3.62 µM) | responders at 6.3 mg/kg [6, 18]: 0% | responders at 12.5 mg/kg [6, 18]: 20% | responders at 25 mg/kg [6, 18]: 40% | responders at 50 mg/kg [6, 18]: 80% | ED50 [6, 19]: 27 mg/kg | responders at 6.3 mg/kg [7, 28]: 0% | responders at 12.5 mg/kg [7, 29]: 20% | responders at 25 mg/kg [7, 30]: 80% | responders at 50 mg/kg [7, 31]: 100% | ED50 [7, 20]: 18 mg/kg | MIC [9, 22]: 1.6 µg/mL (≈ 1.87 µM) | MIC [9, 23]: 1.6 µg/mL (≈ 1.87 µM) | MIC [10]: 6.3 µg/mL (≈ 7.35 µM) | MIC [11]: 1.6 µg/mL (≈ 1.87 µM) | MIC [12]: 1.6 µg/mL (≈ 1.87 µM) | MIC [13, 24]: 1.6 µg/mL (≈ 1.87 µM) | MIC [13, 25]: 1.6 µg/mL (≈ 1.87 µM) | solubility [14]: 260 µg/mL (≈ 303 µM) | MIC [15, 26]: 0.8 µg/mL (≈ 0.934 µM) | MIC [15, 27]: 0.8 µg/mL (≈ 0.934 µM)

COc1cc(O)c2c(c1)C(=O)c1c(cc3c(c1O)-c1c(cc(C)c(C(=O)N[C@H](CO)C(=O)O)c1O)[C@H](O[C@@H]1O[C@H](C)[C@H](N)[C@H](O[C@@H]4OC[C@@H](O)[C@H](O)[C@H]4O)[C@H]1O)[C@H]3O)C2=O [Pradimicin FA-2, reference compound]
MIC [1]: 6.3 µg/mL (≈ 7.48 µM) | MIC [2]: 6.3 µg/mL (≈ 7.48 µM) | MIC [3, 16]: 6.3 µg/mL (≈ 7.48 µM) | MIC [3, 17]: 6.3 µg/mL (≈ 7.48 µM) | MIC [4]: 1.6 µg/mL (≈ 1.9 µM) | MIC [5]: 3.1 µg/mL (≈ 3.68 µM) | ED50 ([7]; 480 h, Table 3, Candida albicans A9540, iv, read-out: PD50 (mice) Ca-4): 7.4 mg/kg | responders at 6.3 mg/kg [7, 28]: 40% | responders at 12.5 mg/kg [7, 29]: 80% | responders at 25 mg/kg [7, 30]: 100% | responders at 50 mg/kg [7, 31]: 100% | ED50 [7, 20]: 7.7 mg/kg | MIC [9, 22]: 1.6 µg/mL (≈ 1.9 µM) | MIC [9, 23]: 1.6 µg/mL (≈ 1.9 µM) | MIC [10]: 6.3 µg/mL (≈ 7.48 µM) | MIC [11]: 1.6 µg/mL (≈ 1.9 µM) | MIC [12]: 1.6 µg/mL (≈ 1.9 µM) | MIC [13, 24]: 3.1 µg/mL (≈ 3.68 µM) | MIC [13, 25]: 3.1 µg/mL (≈ 3.68 µM) | solubility [14]: 20 µg/mL (≈ 23.7 µM) | MIC [15, 26]: 1.6 µg/mL (≈ 1.9 µM) | MIC [15, 27]: 1.6 µg/mL (≈ 1.9 µM)
